Measured values reported in US6423725B1 (dated 2002).
Structures can show the parent of a compound that is named as a salt.

| Compound | melting point |
| --- | --- |
| O=c1[nH]c2ccccc2n1C1CCN(C2(c3ccccc3)CCCCCCCCCCC2)CC1 (as salt: hydrochloride) | 251 °C |
| CC1(C)CCC(c2ccccc2)(N2CCC(n3c(=O)[nH]c4ccccc43)CC2)CC1 (as salt: hydrochloride) | 256 °C |
| CNCCn1c(=O)n(C2CCN(C3(c4ccccc4)CCCCCC3)CC2)c2ccccc21 (as salt: hydrochloride) | 217 °C |
| O=c1[nH]c2ccccc2n1C1CCN(C2(c3ccccc3)CCCCCCCCC2)CC1 (as salt: hydrochloride) | 217 °C |
| CC(C)(C)C1CCC(c2ccccc2)(N2CCC(n3c(=O)[nH]c4ccccc43)CC2)CC1 (stereo not drawn) (as salt: hydrochloride) | 218 to 219 °C |
| O=c1[nH]c2ccccc2n1C1CCN(C2(c3ccc(F)cc3)CCCCCC2)CC1 (as salt: hydrochloride) | 185 to 192 °C |
| CCCC1(N2CCC(n3c(=O)[nH]c4ccccc43)CC2)CCC2(CCCCC2)CC1 (as salt: hydrochloride) | 240 to 247 °C |
| O=c1[nH]c2ccccc2n1C1CCN(C2(c3ccccc3)CCCCCCCC2)CC1 (as salt: hydrochloride) | 187 °C |
| O=c1[nH]c2ccccc2n1C1CCN(C2(c3ccccc3)CCCCCCCCCC2)CC1 (as salt: hydrochloride) | 196 to 202 °C |
| O=C(c1ccccc1)c1ccc2c(c1)[nH]c(=O)n2C1CCN(C2(c3ccccc3)CCCCCC2)CC1 (as salt: hydrochloride) | 118 to 122 °C |

Continued, values first:

| melting point | Compound |
| --- | --- |
| 196 °C | O=c1[nH]c2ccccc2n1C1CCN(C2(c3ccccc3)CCCCCCC2)CC1 (as salt: hydrochloride) |
| 167 to 173 °C | COc1ccccc1C1(N2CCC(n3c(=O)[nH]c4ccccc43)CC2)CCCCCC1 (as salt: hydrochloride) |
| 216 to 218 °C | COc1cccc(C2(N3CCC(n4c(=O)[nH]c5ccccc54)CC3)CCCCCC2)c1 (as salt: hydrochloride) |
| 196 to 199 °C | O=c1[nH]c2ccccc2n1C1CCN(C2(c3cccc(F)c3)CCCCCC2)CC1 (as salt: hydrochloride) |
| 193 to 197 °C | COc1ccc(C2(N3CCC(n4c(=O)[nH]c5ccccc54)CC3)CCCCC2)cc1 (as salt: hydrochloride) |
